This note sets out measurements from patent US11725004B2, “(Cyano-dimethyl-methyl)-isoxazoles and -[1,3,4]thiadiazoles” (Centrexion Therapeutics Corporation, priority 2013, dated 2023).

Chain of human CB1R (P21554 whole entry): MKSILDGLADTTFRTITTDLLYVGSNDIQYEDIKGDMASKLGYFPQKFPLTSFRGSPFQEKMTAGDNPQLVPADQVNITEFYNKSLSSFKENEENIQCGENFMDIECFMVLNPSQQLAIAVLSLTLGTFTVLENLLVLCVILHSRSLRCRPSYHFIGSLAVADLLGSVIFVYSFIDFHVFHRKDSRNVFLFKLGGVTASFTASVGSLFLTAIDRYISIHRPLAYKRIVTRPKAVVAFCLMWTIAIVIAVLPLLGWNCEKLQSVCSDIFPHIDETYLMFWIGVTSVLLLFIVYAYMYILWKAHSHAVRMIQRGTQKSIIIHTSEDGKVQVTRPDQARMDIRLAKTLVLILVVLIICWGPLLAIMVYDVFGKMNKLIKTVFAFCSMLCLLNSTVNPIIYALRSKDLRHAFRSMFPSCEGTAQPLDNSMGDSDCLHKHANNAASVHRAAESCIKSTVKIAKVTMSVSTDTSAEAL

The test has as its target human CB1R (Homo sapiens (Human), UniProt P21554). Put plainly: CB1 cAMP (Assay 2): in vitro testing of CB1 potency. It counts as cell-based. The note with it: CHO cells expressing human CB1R; inhibition of forskolin-stimulated cAMP.
`CC(C)(CO)c1cc(NC(=O)C(C)(C)S(=O)(=O)CC2CCOCC2)on1` [Example 1 in WO2010036630] displayed a half-inhibitory concentration (IC50) of more than 50 µM.

`CC(C)(C#N)c1cc(NC(=O)C(C)(C)S(=O)(=O)CCCC(F)(F)F)on1` [Example 1, N-[3-(Cyano-dimethyl-methyl)-isoxazol-5-yl]-2-methyl-2-(4,4,4-trifluoro-butane-1-sulfonyl)-propionamide] registered an IC50 of 104 µM.

For `CC(C)(CO)c1cc(NC(=O)C(C)(C)S(=O)(=O)C2CCOCC2)on1` [Example 2 in WO2010036630], the IC50 worked out at 150 µM.

In the case of `CC(C)(C#N)c1cc(NC(=O)C(C)(C)S(=O)(=O)CC2CCOCC2)on1` [Example 2, N-[3-(Cyano-dimethyl-methyl)-isoxazol-5-yl]-2-methyl-2-(tetrahydro-pyran-4-ylmethanesulfonyl)-propionamide], the 50% inhibitory concentration (IC50) was more than 200 µM.

`CC(C)(C#N)c1cc(NC(=O)C(C)(C)S(=O)(=O)C2CCOCC2)on1` [Example 3] had an IC50 of more than 200 µM.

`CN(CC1CCOCC1)C(C)(C)C(=O)Nc1cc(C(C)(C)C#N)no1` [Example 4] yielded a 50% inhibitory concentration (IC50) of 39.4 µM.

On to `CN(C1CCN(S(C)(=O)=O)CC1)C(C)(C)C(=O)Nc1cc(C(C)(C)C#N)no1` [Example 5], for which 2.5 µM corresponded to half-maximal inhibition (IC50).

`CC(C)(CO)c1cc(NC(=O)C(C)(C)S(=O)(=O)CCCC(F)(F)F)on1` [Example 7 in WO2010036630] registered an IC50 of 28 µM.

With `CN(CC1CCOCC1)C(C)(C)C(=O)Nc1cc(C(C)(C)CO)no1` [Example 7 in WO2010147792], inhibition was half-maximal at 8.08 µM (IC50).

Compound `CN(CC1CCOCC1)C(C)(C)C(=O)Nc1nnc(C(C)(C)C#N)s1` [Example 7, N-[5-(Cyano-dimethyl-methyl)-[1,3,4]thiadiazol-2-yl]-2-methyl-2-[methyl-(tetrahydro-pyran-4-ylmethyl)-amino]-propionamide] registered an IC50 of more than 200 µM.

`CN(C1CCN(S(C)(=O)=O)CC1)C(C)(C)C(=O)Nc1nnc(C(C)(C)C#N)s1` [Example 8] registered a 50% inhibitory concentration (IC50) of 69 µM.

`COCC(C)(C)c1cc(NC(=O)C(C)(C)S(=O)(=O)CC2CCOCC2)on1` [Example 17 in WO2010036630] yielded a concentration for half-maximal inhibition (IC50) of 8.6 µM.

Take `CN(CC1CCOCC1)C(C)(C)C(=O)Nc1nnc(C(C)(C)CO)s1` [Example 30 in WO2010147792]: the IC50 turned out to be 120 µM.

With `COCC(C)(C)c1cc(NC(=O)C(C)(C)S(=O)(=O)C2CCOCC2)on1` [Example 38 in WO2010036630], it took 50 µM to reach half-maximal inhibition (IC50).

Compound `COCC(C)(C)c1cc(NC(=O)C(C)(C)N(C)CC2CCOCC2)on1` [Example 46 in WO2010147792] yielded a half-maximal inhibitory concentration (IC50) of 0.923 µM.

The compound `CN(C1CCN(S(C)(=O)=O)CC1)C(C)(C)C(=O)Nc1cc(C(C)(C)CO)no1` [Example 47 in WO2010147792] registered an IC50 of 3.1 µM.

For `CC(C)(O)c1cc(NC(=O)C(C)(C)S(=O)(=O)C2CCOCC2)on1` [Example 133 WO2010036630], the concentration for half-maximal inhibition (IC50) was more than 200 µM.

On to `CC(C)(O)c1cc(NC(=O)C(C)(C)S(=O)(=O)CCCC(F)(F)F)on1` [Example 134 in WO2010036630], for which the IC50 turned out to be 26 µM.
